# Test results published in ChEMBL document CHEMBL1134400, “Short peptides with induced beta-turn inhibit the interaction between HIV-1 gp120 and CD4” (J Med Chem, 2001).
# pIC50: −log10 of the molar value. Residues, ends and D or L forms follow the SMILES beside them.
# System: Human immunodeficiency virus 1
# Experiment: Inhibitory activity against interaction between HIV-1 gp120 and CD4
# Assay type: functional
row,pIC50,Compound
1,6.00,CC(C)C[C@H](NC(=O)[C@H](CC(=O)O)NC(=O)[C@H](Cc1ccccc1)NC(=O)[C@H](CO)NC(=O)[C@@H]1CCCN1C(=O)[C@H](CCC(N)=O)NC(=O)[C@@H](N)CS)C(=O)N[C@@H](CCC(N)=O)C(=O)N[C@@H](CS)C(=O)O (H-CQPSFDLQC-OH)
2,4.30,H-ARQPSFDLQCGF-OH
3,5.22,H-PSFDLQ-OH
